Laboratory results from the NIST ThermoML archive (doi:10.1016/j.jct.2006.09.003).
Numbers after ± are expanded uncertainties.

Details: Fluid (supercritical or subcritical phases), Bellows volumetry

CCCC [butane]
mass density [kg/m3]
Details	280 K	300 K	320 K	340 K	360 K	380 K
1000 kPa	595.47 ± 1.1	572.94 ± 1	548.24 ± 0.99	521.26 ± 0.94	–	–
2000 kPa	596.86 ± 1.1	574.58 ± 1	550.53 ± 0.99	524.21 ± 0.94	494.28 ± 0.89	456.63 ± 0.82
3000 kPa	598.22 ± 1.1	576.27 ± 1	552.73 ± 0.99	527.06 ± 0.95	498.49 ± 0.9	463.53 ± 0.83
5000 kPa	600.88 ± 1.1	579.56 ± 1	556.84 ± 1	532.46 ± 0.96	505.91 ± 0.91	474.94 ± 0.86
10000 kPa	607.05 ± 1.1	586.77 ± 1.1	566.09 ± 1	544.06 ± 0.98	520.98 ± 0.94	495.21 ± 0.89
20000 kPa	617.68 ± 1.1	599.44 ± 1.1	580.87 ± 1.1	561.99 ± 1	542.91 ± 0.98	522.42 ± 0.94
30000 kPa	626.91 ± 1.1	610.13 ± 1.1	593.19 ± 1.1	576.2 ± 1	559.24 ± 1	541.49 ± 0.98
40000 kPa	635.29 ± 1.1	619.89 ± 1.1	603.68 ± 1.1	588.27 ± 1.1	572.58 ± 1	556.53 ± 1
50000 kPa	642.77 ± 1.2	628.14 ± 1.1	612.97 ± 1.1	598.47 ± 1.1	584.17 ± 1.1	569.05 ± 1
60000 kPa	649.44 ± 1.2	635.82 ± 1.1	621.23 ± 1.1	607.64 ± 1.1	593.9 ± 1.1	580.01 ± 1.1
70000 kPa	655.79 ± 1.2	642.36 ± 1.2	628.85 ± 1.1	615.81 ± 1.1	602.93 ± 1.1	589.59 ± 1.1
80000 kPa	661.73 ± 1.2	648.71 ± 1.2	635.85 ± 1.1	623.32 ± 1.1	610.9 ± 1.1	598.34 ± 1.1
90000 kPa	667.23 ± 1.2	654.83 ± 1.2	642.47 ± 1.2	630.37 ± 1.1	618.47 ± 1.1	606.19 ± 1.1
100000 kPa	672.51 ± 1.2	660.41 ± 1.2	648.38 ± 1.2	636.58 ± 1.1	625.39 ± 1.1	613.44 ± 1.1
120000 kPa	682.08 ± 1.8	670.68 ± 1.2	659.38 ± 1.2	648.45 ± 2.9	637.62 ± 1.2	626.58 ± 1.1
140000 kPa	690.89 ± 1.8	680.05 ± 1.2	669.21 ± 1.2	658.64 ± 2.9	648.76 ± 1.2	638.25 ± 1.2
160000 kPa	698.82 ± 1.8	688.48 ± 1.3	678.31 ± 1.2	668.16 ± 3	658.47 ± 1.2	648.59 ± 1.2
180000 kPa	706.38 ± 1.9	696.25 ± 1.3	686.49 ± 1.3	676.9 ± 3	667.68 ± 1.2	658.14 ± 1.2
200000 kPa	713.34 ± 1.9	703.51 ± 1.3	694.12 ± 1.3	684.85 ± 3	676.03 ± 1.3	666.86 ± 1.2
